Results as given in patent US5698529A, “Chemotherapeutic compositions” (Supratek Pharma, Inc., priority 1996, dated 1997).
≈ marks a conversion by molar mass, not a printed value. Like-named read-outs stand apart in the source and are kept apart here.

Experiments:
[1] = system: human T-lymphoma (Jurkat) cells; test: Cytotoxicity to human T-lymphoma (Jurkat) cells, Example 1; format: cell-based
Protocol: A. A block copolymer of poly(oxyethylene)-poly(oxypropylene) in which N=0.25 (Pluronic F-68) is diluted with RPMI 1640 medium to a final concentration of 2.0% at 4° C. The mixture is incubated for 30 minutes at 37° C. and then sterilely filtered through a 0.22 μm filter. An equal volume of a solution of 200 μg daunorubicin in RPMI 1640 medium is added and this mixture is incubated for 30 minutes at 37° C.
(§1) B. Human ovarian carcinoma cells (CRL157) are precultured in 1% solution of the same block copolymer but without daunorubicin in RPMI 1640 medium supplemented with 10% calf fetal serum. The preparation of part A is added and the mixture is incubated for 60 minutes at 37° C. and the cells then washed three times with RPMI 1640 and cultured in RPMI 1640 supplemented with 10% calf fetal serum for 3 days {Prep. A}. Cytotoxicity is measured, both for this preparation and a parallel preparation of free daunorubicin {Prep. B}, using the method of Alley et al., Cancer Res., 48, 589-601 (1988). The results are as follows:
Following the same procedure, cytotoxicity is determined against human T-lymphoma (Jurkat) cells: […]

[2] = system: human T-lymphoma (Jurkat) cells; test: Cytotoxicity in human T-lymphoma (Jurkat) cells, Example 4; format: cell-based
Protocol: as §1
A. A 1:1.5 mixture of block copolymers of poly(oxyethylene)-poly(oxypropylene) (pluronics P-85 and L-64) having individual ratios (n) of (oxypropylene) to (oxyethylene) blocks of 1.00 and 1.50, respectively, and a combined value (N) of 1.30, is diluted with RPMI 1640 medium to a final concentration of 2.0% at 4° C. The mixture is incubated for 30 minutes at 37° C. and then sterilely filtered through a 0.22 μm filter. An equal volume of a solution of 200 μg daunorubicin in RPMI 1640 medium is added and this mixture is incubated for 30 minutes at 37° C.
Daunorubicin in the composition of Example 3 is evaluated for cytotoxicity in (i) human T-lymphoma (Jurkat) cells as described in Example 1 and (ii) normal human mononuclear cells.

[3] = system: human T-lymphoma (Jurkat) cells; test: IC50 at intervals of drug contact, Jurkat cells, Example 5; format: cell-based
Protocol: (§2) Measurements are made at the indicated intervals of the drug contact with the cells from 15 minutes to 12 hours.

[4] = system: normal human mononuclear cells; test: IC50 at intervals of drug contact, normal mononuclear cells, Example 5; format: cell-based
Protocol: as §2

CRL157 cells = test: Cytotoxicity to CRL157 cells after incubation of preparations in the dark at 37° C.; format: cell-based; settings: Homo sapiens
Protocol: as §1
Micellar daunorubicin obtained as described in Example 3 {Prep. A} and free daunorubicin {Prep. B} are incubated in the dark at 37° C. and cytotoxicity to CRL157 cells in then determined in the manner discussed in Part B of Example 1.

leukocytes = test: Leukocyte count (WBS) in mice
Protocol: Therefore, the leukocyte count during in vivo administration of MTD daunorubicin allows the assessment of the ratio between specific (DNA-intercollation) activity of the drug and non-specific toxicity.
Groups (6 animals/group) of C57B1/6 7-week-old female mice are inoculated i.p. with free of micellar (N=1.3) daunorubicin obtained as described in Example 3 {Prep. B and Prep. A, respectively}. Drug concentrations (MTD) are adjusted so that a maximum volume of 0.5 mL is injected in each mouse. Blood samples are collected and viable leukocytes are counted as described in Michisch et al., Proc. Natl. Acad. Sci. USA 88, 547-551 (1991). The number of WBC after administration of 0.1 mL PBS, 15-16 mln cells/mL, is used as the control. The experiment is repeated twice.
The effects of free and micellar daunorubicin obtained as described in Example 3 {Prep. B and Prep. A, respectively} on leukocyte count are determined three days after administration as described in Example 15.

SKVLB cells = test: Cytotoxic activity of plasma of inoculated mice on SKVLB cells; format: cell-based, human
Protocol: (§3) Anti-neoplastic activity is determined by evaluation of the cytotoxic activity of plasma of mammals inoculated with the test composition (see de Valeriola et el., Cancer Chemother. Pharmacol. 29, 133-140, 1991).
(§4) Groups (6 animals/group) of C57B1/6 7-week-old female mice are inoculated i.v. (via the tail vein) with free or micellar (N=1.3) daunorubicin obtained as described in Example 3 {Prep. B and Prep. A, respectively}. Drug concentrations (MTD) are adjusted so that a maximum volume of 0.1 mL is injected in each mouse. The experiment is repeated twice.
(§5) To obtain plasma samples, blood (10 μl) is collected from the tail artery one hour after drug administration, diluted 1:10 with sterile RPMI 1640 medium, and centrifuged at 400 g for 15 minutes. […] The cells are incubated for two hours at 37° C. and 5% CO2, and then washed three times with RPMI 1640. The pretreated cells are incubated in RPMI 1640 supplemented with 10% fetal calf serum at 37° C. and 5% CO2 for three days, after which cytotoxicity is determined as described in Example 1.
(§6) The procedure of Example 16 is repeated utilizing SKVLB and SRVO3 cells.

SKVO3 cells = test: Cytotoxic activity of plasma of inoculated mice on SKVO3 cells; format: cell-based, human
Protocol: as §3, §4, §5, §6

[5] = plasma dilution 1:20, 10 mg/kg daunorubicin
[6] = plasma dilution 1:20, MTD of daunorubicin
[7] = plasma dilution 1:200, 10 mg/kg daunorubicin
[8] = plasma dilution 1:200, MTD of daunorubicin
[9] = plasma dilution 1:2000, 10 mg/kg daunorubicin
[10] = plasma dilution 1:2000, MTD of daunorubicin

COc1cccc2c1C(=O)c1c(O)c3c(c(O)c1C2=O)C[C@@](O)(C(C)=O)C[C@@H]3O[C@H]1C[C@H](N)[C@H](O)[C@H](C)O1 [Prep. B, daunorubicin]
inhibition at 0.0032 µg/mL [1]: 22% | inhibition at 0.016 µg/mL [1]: 44% | inhibition at 0.08 µg/mL [1]: 51% | inhibition at 0.4 µg/mL [1]: 84% | inhibition at 2 µg/mL [1]: 100% | inhibition at 10 µg/mL [1]: 100% | inhibition at 50 µg/mL [1]: 100% | inhibition at 0.0032 µg/mL [2]: 21% | inhibition at 0.016 µg/mL [2]: 36% | inhibition at 0.08 µg/mL [2]: 59% | inhibition at 0.4 µg/mL [2]: 83% | inhibition at 2 µg/mL [2]: 100% | inhibition at 10 µg/mL [2]: 100% | inhibition at 50 µg/mL [2]: 100% | IC50 ([3]; 0.25 h): 0.12 µg/mL (≈ 0.227 µM) | IC50 ([3]; 0.5 h, drug contact 0.50 hours, read-out: IC50): 0.068 µg/mL (≈ 0.129 µM) | IC50 ([3]; 0.75 h): 0.035 µg/mL (≈ 0.0663 µM) | IC50 ([3]; 1 h): 0.025 µg/mL (≈ 0.0474 µM) | IC50 ([3]; 2 h): 0.019 µg/mL (≈ 0.036 µM) | IC50 ([3]; 4 h): 0.016 µg/mL (≈ 0.0303 µM) | IC50 ([3]; 8 h): 0.003 µg/mL (≈ 0.00569 µM) | IC50 ([3]; 12 h): 0.0052 µg/mL (≈ 0.00986 µM) | IC50 ([4]; 0.25 h): 4.9 µg/mL (≈ 9.29 µM) | IC50 ([4]; 0.5 h): 0.98 µg/mL (≈ 1.86 µM) | IC50 ([4]; 0.75 h): 0.405 µg/mL (≈ 0.768 µM) | IC50 ([4]; 1 h): 0.31 µg/mL (≈ 0.588 µM) | IC50 ([4]; 2 h): 0.29 µg/mL (≈ 0.55 µM) | IC50 ([4]; 4 h): 0.275 µg/mL (≈ 0.521 µM) | IC50 ([4]; 8 h): 0.28 µg/mL (≈ 0.531 µM) | IC50 ([4]; 12 h): 0.24 µg/mL (≈ 0.455 µM) | IC50 (CRL157 cells; 2 h): 0.4 µg/mL (≈ 0.758 µM) | IC50 (CRL157 cells; 4 h): 0.475 µg/mL (≈ 0.9 µM) | IC50 (CRL157 cells; 12 h): 1.12 µg/mL (≈ 2.12 µM) | IC50 (CRL157 cells; 24 h): 6.3 µg/mL (≈ 11.9 µM) | IC50 (CRL157 cells; 48 h): 10.2 µg/mL (≈ 19.3 µM) | IC50 (CRL157 cells; 96 h): 48.9 µg/mL (≈ 92.7 µM) | WBS, % of control (leukocytes; day 0, MTD i.p.): 100 % of control | WBS, % of control (leukocytes; day 3, MTD i.p.): 40 % of control | WBS, % of control (leukocytes; day 7, MTD i.p.): 60 % of control | WBS, % of control (leukocytes; day 10, MTD i.p.): 93.8 % of control | WBS, % of control (leukocytes; day 14, MTD i.p.): 100 % of control | WBS, % of control (leukocytes; dose 25% of MTD, three days after administration): 78 % of control | WBS, % of control (leukocytes; dose 50% of MTD, three days after administration): 61 % of control | WBS, % of control (leukocytes; dose 75% of MTD, three days after administration): 36 % of control | WBS, % of control (leukocytes; dose 100% of MTD, three days after administration): 39 % of control | Inhibition, % (SKVLB cells; [5]): 8% | Inhibition, % (SKVLB cells; [6]): 0% | Inhibition, % (SKVLB cells; [7]): 0% | Inhibition, % (SKVLB cells; [8]): 0% | Inhibition, % (SKVLB cells; [9]): 0% | Inhibition, % (SKVLB cells; [10]): 0% | Inhibition, % (SKVO3 cells; [5]): 22% | Inhibition, % (SKVO3 cells; [6]): 9% | Inhibition, % (SKVO3 cells; [7]): 6% | Inhibition, % (SKVO3 cells; [8]): 0% | Inhibition, % (SKVO3 cells; [9]): 0% | Inhibition, % (SKVO3 cells; [10]): 0%
